As a reminder, the IC50 is the midpoint of a concentration-inhibition curve.

These results are taken from article PMC5354587, “Ergosterone-coupled Triazol molecules trigger mitochondrial dysfunction, oxidative stress, and acidocalcisomal Ca^2+ release in Leishmania mexicana promastigotes” (Microbial Cell, 2015).

Format in all cases: cell-based
For experiment [1], the system named is Leishmania mexicana promastigotes. As to the kind of experiment: Cytoplasmic Ca2+ level measurement with Fura 2-AM. To be noted: Erg-GTr 1.4 μM or Erg-GTr2 2.3 μM; same result with extracellular Ca2+ sequestered by EGTA. The text has this: In order to evaluate the possible effect of Erg-GTr and Erg-GTr2 on the cytoplasmic Ca^2+ concentration ([Ca^2+]cyt) in L. mexicana promastigotes, parasites were loaded with fura 2-AM, a fluorimetric Ca^2+ indicator which allows the measurement of intracellular changes in its concentration. Figure 7A represents the relative [Ca^2+]cyt, indicated as normalized OD340/380 ratio.
The fluorescent ratiometric Ca^2+ indicator Fura 2-AM was used to analyze intracellular Ca^2+ concentration. Promastigotes from stationary phase cultures were washed twice with PBS containing 1% glucose and incubated for 3 hours at 29°C with 4 μM Fura 2-AM, […], and 0.05% pluronic acid. Thereafter, parasites were washed twice, resuspended, and placed in a stirred quartz cuvette at 29°C. Fluorescence (ex 340 nm/380 nm and em 510 nm) was registered in a Hitachi F-7000 Spectrofluorimeter. Digitonin and EGTA were used to obtain the maximum and minimum [Ca^2+] in the sample, respectively.

A further experiment has as its system human dermic fibroblasts. Description: Half-inhibitory concentration on human fibroblasts, modified MTT method. The settings on record: Fibroblast, 72 hours. The procedure: (§1) Promastigotes of Leishmania mexicana Bel 21 strain were cultured at 26°C in Liver Infusion Tryptone (LIT) medium supplemented with 10% fetal bovine serum (Internegocios). Primary cultures of human dermic fibroblasts were performed at 37°C in DMEN medium (Sigma) supplemented with 10% fetal bovine serum in a CO2 incubator at 5% CO2.
(§2) To determine the IC50 in parasites and human fibroblasts the protocol described by was followed. Briefly, a suspension of 2 x 10^6 parasites per mL^-1 or 5 x 10^3 fibroblasts per well were transferred into 96 well plates and different concentrations of the compounds were added. Plates were incubated under the corresponding culture conditions for 48 or 72 hours for L. mexicana or human fibroblasts, respectively. Thereafter, parasites plates were centrifuged prior to the elimination of the supernatant. Cell viability was measured by the modified MTT method, where cells were incubated with the MTT substrate at 0.2 mg x mL^-1 for 4 hours. Colored crystals formed were solubilized in DMSO and absorbance was measured at 570 nm. IC50 was obtained from a dose response curve using the software OriginLab Pro 6.0^©.
In general terms: Tetrazolium assays rely on reduction of a dye to a coloured formazan, in cell work by metabolically active cells.

In experiment [2] the test system is Leishmania mexicana promastigotes. As to the kind of experiment: Transmission electron microscopy of treated parasites. The settings on record: 48 hours, TEM. As to the method: To analyze if changes observed after parasite treatment with Erg-GTr or Erg-GTr2 can be associated with morphological alterations, cells were prepared for transmission electron microscopy as described in materials and methods section.
Figure 5 FIGURE 5: Transmission electron microscopy (TEM) of Epon-embedded cells. Parasites were treated with 1.4 μM Erg-GTr, 2.3 μM Erg-GTr2 or DMSO (control cells), harvested after 48 hours and prepared for TEM. (A) The most obvious alterations in Erg-GTr-treated cells are as follows: increase of vacuolar structures containing cytoplasmic material (c, d, f, h), myelin-like structures (d, h), increase of lysosomes (d, e, g), and flagellar pocket containing some material (g). Note the usual appearance of mitochondria, nucleus and cytoplasmic content in control cells (a, b). Abbreviations used: lysosome (L); nucleus (N); flagellar pocket (FP); mitochondrion (M). Arrows and asterisk indicate autophagosomes and myelin-like structures, respectively. (B) Mitochondrion zoom in to show cristae. […] Bars represent 0.5 μ each.
For TEM, 10^8 parasites were fixed in 2% (vol/vol) glutaraldehyde in 0.2 M sodium cacodylate buffer containing 0.12 M sucrose for 1 h at 4°C. Thereafter samples were washed four times (10 min each) and stored overnight in sodium cacodylate buffer. Before dehydration in ethanol, cells were postfixed in osmium tetroxide (1.5%, wt/vol) and stained in 0.5% uranyl acetate. Samples were cleared in propylene oxide and embedded in Agar 100 as described by. Sections were stained in 5% (wt/vol) uranyl acetate and 0.4% (wt/vol) lead citrate.

For experiment [3] the test system is unchanged. Description: Half-inhibitory concentration on parasites, modified MTT method. The procedure: Parasites were treated with different concentrations of the synthesized compounds for 48 hours to determine their cytotoxic effect. A dose dependent growth inhibition was observed after this time.
as §1, §2

For the compound `CC(C)C(C)C=CC(C)C1CCC2C3=CC(=NNC(=O)n4cnnc4)C4(O)CC(=O)CCC4(C)C3CCC21C` (stereo not shown) [Erg-GTr, [1,2,4]triazole-4-carboxylic acid [5-hydroxy-10,13-dimethyl-3-oxo-17-(1,4,5-trimethyl-hex-2-enyl)-1,2,3,4,5,9,10,11,12,13,14,15,16,17-tetradecahydro-cyclopenta[a]phenanthren-6-ylidene]-hydrazide], in experiment [1], the “effect on cytoplasmic Ca2+ concentration ([Ca2+]cyt)” value is “rapid increase”. In the experiment on human dermic fibroblasts, this compound came in with an IC50 of 13.7 ± 1.9 µM. Further, in experiment [2], the “autophagy (ultrastructural changes)” value is “Induction of autophagy”; the “treated parasites showing increase in cristae number and size” value is recorded as “More than 50%”. In experiment [2] (compared with control), the “number and size of mitochondrion cristae” value is on record as “higher”. In addition, the IC50 in experiment [3] (Leishmania mexicana, 48 h, read-out: IC50 on L. mexicana promastigotes) was 1.4 ± 0.4 µM. This compound also yielded a Selectivity index in experiment [3] (promastigotes compared to human dermic fibroblasts) of 9.8.
